# According to patent US8420659B2, “Compositions and methods for inhibition of the JAK pathway” (Rigel Pharmaceuticals, Inc., priority 2008, dated 2013):
# Test system: Human primary T-cells
# Experiment: Cell Titer-Glo, Human primary T Cell, IL2 (proliferation)
# Assay type: cell-based
# Conditions: IL-2 stimulated primary T-cell proliferation, 72 hours at 37° C., Cell Titer-Glo luminescence
# Text: The activity of the compounds described herein can further be characterized by assaying the effect of the 2,4-pyrimidinediamine compounds described herein on the proliferative response of primary human T-cells. In this assay, primary human. T-cells derived from peripheral blood and pre-activated through stimulation of the T-cell receptor and CD28, proliferate in culture in response to the cytokine Interleukin-2 (IL-2). This proliferative response is dependent on the activation of JAK1 and JAK3 tyrosine kinases, which phosphorylate and activate the transcription factor Stat-5. The primary human T-cells are incubated with the 2,4-pyrimidinediamine compounds in the presence of IL-2 for 72 hours, and at the assay endpoint intracellular ATP concentrations are measured to assess cell viability. A reduction in cell proliferation compared to control conditions is indicative of inhibition of the JAK kinase pathway.
# Cell Titer-Glo, Human primary T Cell, IL2
# Materials and Reagents: Dimethyl Sulfoxide (DMSO) (Sigma-Aldrich, Cat# D2650) was used as a control. The following reagents were used: Ficoll Hypaque (Amersham Pharmacia, Cat#17-1440-03), Anti-Human CD3 (BD Pharmingen, Cat#555336), Anti-Human CD28 (Immunotech, Cat# IM1376), Yssel's Media (Gemini Bio-products, Cat#400-103), RPMI 1640 (Cellgro, Cat#10-040-CM), Fetal Bovine Serum (JRH, Cat#12106-500M), and […] (R& D Systems, Cat#202-IL).
# Human primary T-cells were isolated and cultured according to the following procedure. Whole blood was obtained from a healthy volunteer, mixed 1:1 with PBS, layered on to Ficoll Hypaque in 2:1 blood/PBS:ficoll ratio and centrifuged for 30 min at 4° C. at 1750 rpm. The lymphocytes at the serum: ficoll interface were recovered and washed twice with 5 volumes of PBS. The cells were resuspended in Yssel's medium containing 40 U/mL IL-2 and seeded into a flask pre-coated with […] anti-CD3 and […] anti-CD28. The primary T-cells were stimulated for 3-4 days, then transferred to a fresh flask and maintained in RPMI with 10% FBS and 40 U/mL IL-2.
# Primary T-cells were starved of IL-2 overnight and resuspended in Yssel's medium at 2×10^6 cells/mL. 50 μL of cell suspension containing 80 U/mL IL-2 was added to each well of a flat bottom 96 well black plate. For the unstimulated control, IL-2 was omitted from the last column on the plate. Compound was serially diluted in DMSO from 5 mM in 3-fold dilutions, and then diluted 1:250 in Yssel's medium. 50 μL of 2× compound was added per well in duplicate and the cells were allowed to proliferate for 72 hours at 37° C.
# Proliferation was measured using Cell Titer-Glo. The substrate was thawed and allowed to come to room temperature. After mixing the Cell Titer-Glo reagent and diluent together, 100 μL was added to each well. The plates were mixed on an orbital shaker for two minutes to induce lysis and incubated at room temperature for an additional ten minutes to allow the signal to equilibrate. The Luminescence was read on the Wallac Plate Reader (Wallac Victor2 1420 Multilabel Counter).
row,SMILES,IC50 [nM]
1,"CCNS(=O)(=O)NCc1ccc(Nc2nc(Nc3cccc(S(N)(=O)=O)c3)ncc2Cl)cc1 [Compound I-5, N2-(3-Aminosulfonylphenyl)-5-chloro-N4-[4-[(N-ethylsulfamoylamino)methyl]phenyl]-2,4-pyrimidinediamine]",< 500
2,"CCNS(=O)(=O)NCc1ccc(Nc2nc(Nc3ccc(S(N)(=O)=O)cc3)ncc2C)cc1 [Compound I-8, N2-(4-Aminosulfonylphenyl)-N4-[4-[(N-ethylsulfamoylamino)methyl]phenyl]-5-methyl-2,4-pyrimidinediamine]",< 500
3,"CCNS(=O)(=O)NCc1cccc(Nc2nc(Nc3cccc(S(N)(=O)=O)c3)ncc2Cl)c1 [Compound I-9, N2-(3-Aminosulfonylphenyl)-5-chloro-N4-[3-[(N-ethylsulfamoylamino)methyl]phenyl]-2,4-pyrimidinediamine]",< 500
4,"CCNS(=O)(=O)NCc1cccc(Nc2nc(Nc3ccc(S(N)(=O)=O)cc3)ncc2Cl)c1 [Compound I-10, N2-(4-Aminosulfonylphenyl)-5-chloro-N4-[3-[(N-ethylsulfamoylamino)methyl]phenyl]-2,4-pyrimidinediamine]",< 500
5,"CCNS(=O)(=O)NCc1cccc(Nc2nc(Nc3cccc(S(N)(=O)=O)c3)ncc2C)c1 [Compound I-11, N2-(3-Aminosulfonylphenyl)-N4-[3-[(N-ethylsulfamoylamino)methyl]phenyl]-5-methyl-2,4-pyrimidinediamine]",< 500
6,"CCNS(=O)(=O)NCc1cccc(Nc2nc(Nc3ccc(S(N)(=O)=O)cc3)ncc2C)c1 [Compound I-12, N2-(4-Aminosulfonylphenyl)-N4-[3-[(N-ethylsulfamoylamino)methyl]phenyl]-5-methyl-2,4-pyrimidinediamine]",< 500
7,"CCNS(=O)(=O)NCc1cccc(Nc2nc(Nc3cccc(S(N)(=O)=O)c3)ncc2F)c1 [Compound I-13, N2-(3-Aminosulfonylphenyl)-N4-[3-[(N-ethylsulfamoylamino)methyl]phenyl]-5-fluoro-2,4-pyrimidinediamine]",< 500
8,"CCNS(=O)(=O)NCc1ccc(Nc2nc(Nc3cccc(S(N)(=O)=O)c3)ncc2Cl)c(C)c1 [Compound I-15, N2-(3-Aminosulfonylphenyl)-5-chloro-N4-[4-[(N-ethylsulfamoylamino)methyl]-2-methylphenyl]-2,4-pyrimidinediamine]",< 500
9,"NS(=O)(=O)c1ccc(Nc2ncc(Cl)c(Nc3ccc(CNS(=O)(=O)NC4CC4)cc3)n2)cc1 [Compound I-19, N2-(4-Aminosulfonylphenyl)-5-chloro-N4-[4-[(N-cyclopropylsulfamoylamino)methyl]phenyl]-2,4-pyrimidinediamine]",< 500
